Measurements as given in ChEMBL document CHEMBL1145473, “Efficacy of the de novo-derived antimicrobial peptide WLBU2 against oral bacteria” (2007).
Calls of active or inactive are those of the source. The calls are words filed in the database; no cut-off is given here.

Columns and labels:
[1] = test system: Fusobacterium nucleatum; assay: Antimicrobial activity against Fusobacterium nucleatum biofilms assessed as decrease in viable cell count at 2 uM after 30 mins; type: functional, organism-based
[2] = test system: Streptococcus gordonii; assay: Antimicrobial activity against Streptococcus gordonii DL1 ATCC 49818 biofilms assessed as decrease in viable cell count at 25 uM after 30 mins; type: functional, organism-based
[3] = test system: Fusobacterium nucleatum; assay: Antimicrobial activity against Fusobacterium nucleatum planktonic cells at 2 uM after 30 mins; type: functional, organism-based
[4] = test system: Pseudomonas aeruginosa; assay: Antimicrobial activity against Pseudomonas aeruginosa ATCC 47085 by broth dilution assay; type: functional
[5] = test system: Fusobacterium nucleatum; assay: Antimicrobial activity against Fusobacterium nucleatum ATCC 49256 by broth dilution assay; type: functional
[6] = test system: Fusobacterium nucleatum; assay: Antimicrobial activity against Fusobacterium nucleatum ATCC 25586 by broth dilution assay; type: functional
[7] = test system: Porphyromonas gingivalis; assay: Antimicrobial activity against Porphyromonas gingivalis W83 ATCC BAA0308 by broth dilution assay; type: functional
[8] = test system: Streptococcus gordonii; assay: Antimicrobial activity against Streptococcus gordonii DL1 ATCC 49818 by broth dilution assay; type: functional
[9] = test system: Streptococcus gordonii; assay: Antimicrobial activity against Streptococcus gordonii DL1 ATCC 49818 planktonic cells at 25 uM after 30 mins; type: functional, organism-based

Compound	Activity [1]	Activity [2]	Activity [3]	MBC [4]	MBC [5]	MBC [6]	MBC [7]	MBC [8]	Activity [9]
Cc1ncc([N+](=O)[O-])n1CCO	inactive	–	–	–	–	–	–	–	–
CC1(C)S[C@@H]2[C@H](NC(=O)[C@H](N)c3ccc(O)cc3)C(=O)N2[C@H]1C(=O)O	inactive	–	–	–	–	–	–	–	–
H-RRWVRRVRRWVRRVVRVVRRWVRR-OH	–	Active	Active	1 µM	1 µM	1 µM	50 µM	12.5 µM	Active
